Drawing on patent US20230069722A1, “TUBULYSINS AND PROTEIN-TUBULYSIN CONJUGATES” (priority 2020, published 2023), this text covers IC50 for eleven compounds.

Like-named read-outs stand apart in the source and are kept apart here. A value given as a limit tells only on which side of the number the result lay.

The assay deals with HCT15 cells. Nature of the assay: MDR cell based killing assay, HCT15 cells with or without Verapamil (CellTiter-Glo). The arrangement: species or system human. The settings on record: Homo sapiens. As for the experimental part:
To test the ability of the disclosed tubulysin payloads or prodrug payloads to kill human cell lines, an in vitro cytotoxicity assay can be performed. In vitro cytotoxicity of the disclosed payloads, as well as reference compounds, are evaluated using the CellTiter-Glo Assay Kit (Promega, Cat # G7573), in which the quantity of ATP present is used to determine the number of viable cells in culture. For the assay, C4-2, HEK293, or T47D cells are seeded at 4000 cells/well on Nunclon white 96-well plates in complete growth medium (DME high glucose:Ham's F12 at 4:1, 10% FBS, 100 units/ml Penicillin, 100 ug/ml streptomycin, 53 ug/ml glutatmine, 10 ug/ml insulin, 220 ng/ml biotin, 12.5 pg/ml T3, 12.5 ug/ml Adenine, 4 ug/ml transferrin for C42 cells; DME high glucose, 10% FBS, 100 units/ml Penicillin, 100 ug/ml streptomycin, 53 ug/ml glutatmine for HEK293; RPMI, 10% FBS, 100 units/ml Penicillin, 100 ug/ml streptomycin, 53 ug/ml glutatmine, 10 ug/ml insulin, 10 mM HEPEs, 200 nM Sodium Pyruvate for T47D cells) and grown overnight at 37° C. in 5% CO2. For cell viability curves, 1:3 serially diluted payloads are added to the cells at final concentrations ranging from 100 nM to 15 pM, including a no treatment control group, and are then incubated for 5 days. After the 5-day incubation, cells are incubated at room temperature with 100 μL of CellTiter-Glo reagents for 10 minutes. Relative luminescence units (RLU) can be determined on a Victor plate reader (PerkinElmer). The IC50 values are determined from a four-parameter logistic equation over a 10-point response curve (GraphPad Prism). All IC50 values are expressed in molar (M) concentration. The percent cell killing (% kill) at the maximum concentration tested is estimated from the following formula (100−% viable cells). Averages±standard deviation (SD) can be included where replicate experiments are performed.
In vitro cytotoxicity of the disclosed payloads as well as reference compounds are evaluated similarly as described above except using 1000 HCT15 cells, a colorectal carcinoma cell line, in growth medium (RPMI, 10% FBS, 100 units/ml Penicillin, 100 ug/ml streptomycin, 53 ug/ml glutatmine) with or without 5 ug/mL of Verapamil.
For each payload or prodrug payload, the HCT-15 IC50 in the absence of Verapamil is divided by the HCT-15 IC50 in the presence of Verapamil (HCT-15 IC50/HCT-15+Verapamil IC50). […] The reference compound, (MMAE), can have a ratio of 23.7. […]
(In general: In ATP-based viability assays light output follows the ATP content of the culture.)

Where [1] appears, read: HCT-15, read-out: HCT-15 with verapamil IC50.

With `CCCCCCN(C(=O)[C@@H](NC(=O)[C@H]1CCCCN1C)[C@@H](C)CC)[C@H](C[C@@H](OC(C)=O)c1nc(C(=O)NS(=O)(=O)Cc2ccc(N)cc2)cs1)C(C)C` [Compound P44, (1R,3R)-1-(4-{[(4-aminophenyl)methanesulfonyl]carbamoyl}-1,3-thiazol-2-yl)-3-[(2S,3S)—N-hexyl-3-methyl-2-{[(2R)-1-methylpiperidin-2-yl]formamido}pentanamido]-4-methylpentyl Acetate], under “HCT-15, read-out: HCT-15 IC50”, the IC50 (as a rule, the concentration needed to halve the response being measured) was found to be 25.8 nM.

With `CCCCCCN(C(=O)[C@@H](NC(=O)[C@H]1CCCCN1)[C@@H](C)CC)[C@H](C[C@@H](OCC)c1nc(C(=O)N[C@@H](Cc2ccc(N)cc2)CC(C)(C)C(=O)O)cs1)C(C)C` [Compound P20, (4S)-5-(4-aminophenyl)-4-({2-[(1R,3R)-1-ethoxy-3-[(2S,3S)—N-hexyl-3-methyl-2-[(2R)-piperidin-2-ylformamido]pentanamido]-4-methylpentyl]-1,3-thiazol-4-yl}formamido)-2,2-dimethylpentanoic Acid], the IC50 reads like this: (HCT-15, read-out: HCT-15 IC50) 6.97 nM; under setting [1], 0.52 nM.

For the compound `CCCCCCN(C(=O)[C@@H](NC(=O)[C@H]1CCCCN1C)[C@@H](C)CC)[C@H](C[C@@H](NC(C)=O)c1nc(C(=O)N[C@@H](Cc2ccc(N)cc2)CC(C)(C)C(=O)O)cs1)C(C)C` [Compound P9, (4S)-5-(4-aminophenyl)-4-({2-[(1R,3R)-1-acetamido-3-[(2S,3S)—N-hexyl-3-methyl-2-{[(2R)-1-methylpiperidin-2-yl]formamido}pentanamido]-4-methylpentyl]-1,3-thiazol-4-yl}formamido)-2,2-dimethylpentanoic Acid], the IC50 runs as follows: (HCT-15, read-out: HCT-15 IC50) 2.07 nM; under setting [1], 0.3 nM.

As to `CCCCCCN(C(=O)[C@@H](NC(=O)[C@H]1CCCCN1C)[C@@H](C)CC)[C@H](C[C@@H](OCC)c1nc(C(=O)N[C@@H](Cc2ccc(N)cc2)CC(C)(C)C(=O)O)cs1)C(C)C` [Compound P8, (4S)-5-(4-aminophenyl)-4-({2-[(1R,3R)-1-ethoxy-3-[(2S,3S)—N-hexyl-3-methyl-2-{[(2R)-1-methylpiperidin-2-yl]formamido}pentanamido]-4-methylpentyl]-1,3-thiazol-4-yl}formamido)-2,2-dimethylpentanoic Acid], the IC50 (HCT-15, read-out: HCT-15 IC50) amounted to 0.24 nM and the IC50 under setting [1] was found to be 0.06 nM.

For `CCCCCCN(C(=O)[C@@H](NC(=O)[C@H]1CCCCN1C)[C@@H](C)CC)[C@H](C[C@@H](OCC)c1nc(C(=O)N[C@@H](Cc2ccccc2)CC(C)(C)C(=O)NS(=O)(=O)Cc2ccc(N)cc2)cs1)C(C)C` [Compound P48, (2S,3S)—N-[(1R,3R)-1-(4-{[(2S)-4-{[(4-aminophenyl)methanesulfonyl]carbamoyl}-4,4-dimethyl-1-phenylbutan-2-yl]carbamoyl}-1,3-thiazol-2-yl)-1-ethoxy-4-methylpentan-3-yl]-N-hexyl-3-methyl-2-{[(2R)-1-methylpiperidin-2-yl]formamido}pentanamide], for the setting “HCT-15, read-out: HCT-15 IC50”, the IC50 turned out to be 65.8 nM.

As for `C#CCCCON(C(=O)[C@@H](NC(=O)[C@H]1CCCCN1C)[C@@H](C)CC)[C@H](C[C@@H](OC(C)=O)c1nc(C(=O)N[C@@H](Cc2ccc(NC(=O)CO)cc2)CC(C)(C)C(=O)O)cs1)C(C)C` [Compound P37, (4S)-4-({2-[(1R,3R)-1-(acetyloxy)-4-methyl-3-[(2S,3S)-3-methyl-2-{[(2R)-1-methylpiperidin-2-yl]formamido}-N-(pent-4-yn-1-yloxy)pentanamido]pentyl]-1,3-thiazol-4-yl}formamido)-5-[4-(2-hydroxyacetamido)phenyl]-2,2-dimethylpentanoic Acid], under “HCT-15, read-out: HCT-15 IC50”, the half-inhibitory concentration (IC50) was found to be 102 nM.

Turning to `CCCCCCN(C(=O)[C@@H](NC(=O)[C@H]1CCCCN1C)[C@@H](C)CC)[C@H](C[C@@H](OCC)c1nc(C(=O)N[C@@H](Cc2ccc(N)c(F)c2)CC(C)(C)C(=O)O)cs1)C(C)C` [Compound P3, (4S)-5-(4-amino-3-fluorophenyl)-4-({2-[(1R,3R)-1-ethoxy-3-[(2S,3S)—N-hexyl-3-methyl-2-{[(2R)-1-methylpiperidin-2-yl]formamido}pentanamido]-4-methylpentyl]-1,3-thiazol-4-yl}formamido)-2,2-dimethylpentanoic Acid], the IC50 runs as follows: (HCT-15, read-out: HCT-15 IC50) 0.07 nM; under setting [1], 0.01 nM.

As to `CCCCCCN(C(=O)[C@@H](NC(=O)[C@H]1CCCCN1C)[C@@H](C)CC)[C@H](C[C@@H](OC(=O)NCCN)c1nc(C(=O)N[C@@H](Cc2ccc(N)c(F)c2)CC(C)(C)C(=O)O)cs1)C(C)C` [Compound P5, (4S)-5-(4-amino-3-fluorophenyl)-4-({2-[(1R,3R)-1-{[(2-aminoethyl)carbamoyl]oxy}-3-[(2S,3S)—N-hexyl-3-methyl-2-{[(2R)-1-methylpiperidin-2-yl]formamido}pentanamido]-4-methylpentyl]-1,3-thiazol-4-yl}formamido)-2,2-dimethylpentanoic Acid], the IC50 runs as follows: (HCT-15, read-out: HCT-15 IC50) 38.6 nM; under setting [1], 4.44 nM.

For the compound `CCCCCCN(C(=O)[C@@H](NC(=O)[C@H]1CCCCN1)[C@@H](C)CC)[C@H](C[C@@H](OC(C)=O)c1nc(C(=O)N[C@@H](Cc2ccc(N)cc2)CC(C)(C)C(=O)O)cs1)C(C)C` [Compound P18, (4S)-4-({2-[(1R,3R)-1-(acetyloxy)-3-[(2S,3S)—N-hexyl-3-methyl-2-[(2R)-piperidin-2-ylformamido]pentanamido]-4-methylpentyl]-1,3-thiazol-4-yl}formamido)-5-(4-aminophenyl)-2,2-dimethylpentanoic Acid], the IC50 reads like this: (HCT-15, read-out: HCT-15 IC50) 0.98 nM; under setting [1], 0.05 nM.

For `CCCCCCN(C(=O)[C@@H](NC(=O)[C@H]1C[C@H](C)CCN1)[C@@H](C)CC)[C@H](C[C@@H](OCC)c1nc(C(=O)N[C@@H](Cc2ccc(N)cc2)CC(C)(C)C(=O)O)cs1)C(C)C` [Compound P21, (4S)-5-(4-aminophenyl)-4-({2-[(1R,3R)-1-ethoxy-3-[(2S,3S)—N-hexyl-3-methyl-2-{[(2R,4R)-4-methylpiperidin-2-yl]formamido}pentanamido]-4-methylpentyl]-1,3-thiazol-4-yl}formamido)-2,2-dimethylpentanoic Acid], the IC50 is, setting by setting: (HCT-15, read-out: HCT-15 IC50) 11.1 nM; under setting [1], 1.47 nM.

For the compound `CCCCCCN(C(=O)[C@@H](NC(=O)[C@H]1CCCCN1C)[C@@H](C)CC)[C@H](C[C@@H](OC(C)=O)c1nc(C(=O)N[C@@H](Cc2ccc(F)cc2)CC(C)(C)C(=O)NS(=O)(=O)c2ccc(CN)cc2)cs1)C(C)C` [Compound P46, (1R,3R)-1-(4-{[(2S)-4-{[4-(aminomethyl)benzenesulfonyl]carbamoyl}-1-(4-fluorophenyl)-4,4-dimethylbutan-2-yl]carbamoyl}-1,3-thiazol-2-yl)-3-[(2S,3S)—N-hexyl-3-methyl-2-{[(2R)-1-methylpiperidin-2-yl]formamido}pentanamido]-4-methylpentyl Acetate], the IC50 (HCT-15, read-out: HCT-15 IC50) is over 100 nM.
